≈ marks a conversion by molar mass, not a printed value. A value given as a limit tells only on which side of the number the result lay.

For this data set the following is noted: buffer; pH 7.4; 200.0 µM.
Broadly, the kinetic solubility is the concentration staying in solution when a stock, usually in DMSO, is diluted into the medium. Consider `COc1ccc2c(c1)CCCC21NC(=O)N(CC(=O)N2CC(C)OC(C)C2)C1=O` (centres undefined), for which the solubility (kinetic) is greater than 60.2 µg/mL.

`O=S(=O)(Cc1ccccc1)N1CCN(c2ncccn2)CC1` returned a solubility (kinetic) of 2.3 µg/mL (≈ 7.22 µM).

The compound `CCCCNc1nc2cccnc2s1` registered a kinetic solubility of 30.4 µg/mL (≈ 147 µM).

Regarding `COc1ccccc1S(=O)(=O)Nc1cccc(S(=O)(=O)N2CCCC2)c1`, the solubility (kinetic) was greater than 59.5 µg/mL.

Consider `O=C(Nc1ccccc1C(=O)NC1CC1)c1ccccc1`, for which the kinetic solubility worked out at 16.7 µg/mL (≈ 59.6 µM).

`O=C(NC1CCCCC1)c1cccnc1Sc1ccccc1`: the solubility (kinetic) worked out at 11.2 µg/mL (≈ 35.8 µM).

In turn, `Cc1ccc(OCC(=O)N2CCC3(CC2)CC(=O)c2ccccc2O3)cc1` registered a kinetic solubility of 54.2 µg/mL (≈ 148 µM).

As to `C=CCc1cccc(C=Nc2c[nH]c(=O)[nH]c2=O)c1O`, the solubility (kinetic) came to 8.4 µg/mL (≈ 31 µM).

Compound `Cn1ccnc1Sc1ccccc1[N+](=O)[O-]` came in with a solubility (kinetic) of 24.1 µg/mL (≈ 102 µM).

The compound `Nc1ncn([C@@H]2O[C@H](CO)[C@@H](O)[C@H]2O)c(=O)n1` registered a kinetic solubility greater than 36.6 µg/mL.

`Cc1cccc(Nc2nc(N)c([N+](=O)[O-])c(NCCO)n2)c1` registered a kinetic solubility of 19.8 µg/mL (≈ 65.1 µM).

`CCc1cccc(NC(=O)c2cc(OC)c(OC)c(OC)c2)c1` had a kinetic solubility of 34.2 µg/mL (≈ 108 µM).

`COc1ccccc1NC(=O)COC(=O)C1CCCC1` returned a solubility (kinetic) greater than 41.6 µg/mL.

`Cc1ccc(NC(=O)NCCCN2CCCC2=O)cc1C`: the kinetic solubility was greater than 43.4 µg/mL.

Turning to `CCOc1ccc(N2C(=O)CC(Sc3nc(O)c(CC)c(=O)[nH]3)C2=O)cc1` (centres undefined), the solubility (kinetic) was greater than 58.4 µg/mL.

In turn, `O=c1[nH]c2ccc(Cl)cc2c(-c2ccccc2)c1[N+](=O)[O-]` returned a kinetic solubility of less than 0.3 µg/mL.

`CCCn1c(=O)c(C(=O)Nc2ccccc2C)c(O)c2ccccc21` had a solubility (kinetic) of less than 0.4 µg/mL.

The compound `c1ccc(CC2CCCCN2)cc1` (centres undefined) returned a solubility (kinetic) of 7.7 µg/mL (≈ 43.9 µM).

In turn, `Cn1nccc1C(=O)OCC(=O)Nc1cccc(Cl)c1` returned a solubility (kinetic) greater than 44.1 µg/mL.

Regarding `O=C(Nc1ccccc1)OCCCc1ccccc1`, the kinetic solubility stood at 9.7 µg/mL (≈ 38 µM).

The compound `COc1ccc(/C=C/C(=O)O)cc1S(=O)(=O)N1CCC(Cc2ccccc2)CC1` returned a solubility (kinetic) of 61.6 µg/mL (≈ 148 µM). This solubility kinetic is about 6.4-fold higher than that of the compound before.

As to `COCc1cc(C)nc(Oc2ccccc2)c1C#N`, the kinetic solubility is greater than 38.1 µg/mL.

In turn, `CCCCN(c1ccccc1)S(=O)(=O)c1cccc2cccnc12` came in with a kinetic solubility of 9 µg/mL (≈ 26.4 µM).

Turning to `O=C(CN1CCCCCC1)Nc1ccccc1Cl`, the solubility (kinetic) turned out to be 24.9 µg/mL (≈ 93.3 µM).

`O=c1c2ccccc2[nH]c(=S)n1-c1ccc2c(c1)OCCO2` gave a kinetic solubility of 4.5 µg/mL (≈ 14.4 µM). This solubility kinetic is about 5.5-fold lower than that of the compound before.

On to `Cc1ccc(C2=NCC(=O)Nc3ccc(Br)cc32)cc1`, for which the kinetic solubility is 42.1 µg/mL (≈ 128 µM).

On to `O=C(O)c1ccc(NC(=O)C2(c3ccccc3)CCCC2)cc1`, for which the kinetic solubility is greater than 46.4 µg/mL.

On to `CC(=O)Nc1ccc(C(=O)OCC(=O)N2CCCC2)cc1`, for which the solubility (kinetic) is greater than 43.5 µg/mL.

`CN1CCN(CC(O)COc2ccccc2)CC1` (centres undefined) had a kinetic solubility of 33.4 µg/mL (≈ 133 µM).

Consider `COc1ccccc1N(C)S(=O)(=O)c1ccc(C(=O)O)cc1`, for which the kinetic solubility was greater than 48.2 µg/mL.

In the case of `CC(C)CN1CCN(Cc2c[nH]c3ccccc23)CC1CCO` (centres undefined), the solubility (kinetic) is 33.3 µg/mL (≈ 106 µM).

`CC1(C(=O)O)CCC(C(=O)N2CCCCC2)C1(C)C` (centres undefined) registered a solubility (kinetic) greater than 40.1 µg/mL.

`CN(CCO)c1cc(N(C)CCO)c([N+](=O)[O-])cc1[N+](=O)[O-]` returned a kinetic solubility of 42.1 µg/mL (≈ 134 µM).

Take `CC1(C)CC(NC(=S)Nc2ccc([N+](=O)[O-])cc2)CC(C)(C)N1`: the kinetic solubility was determined as 42.1 µg/mL (≈ 125 µM).

In the case of `COc1ccc(C(=O)CCN2CCC(C)CC2)cc1.Cl`, the solubility (kinetic) was greater than 44.7 µg/mL.

The compound `O=C1c2ccccc2C(=O)C1c1ccccn1` displayed a kinetic solubility of 14.2 µg/mL (≈ 63.6 µM).

For `O=C(C[n+]1ccccn1)c1ccccc1.[Br-]`, the kinetic solubility was greater than 41.9 µg/mL.

The compound `O=C(NCCN1CCOCC1)c1ccc(Cl)c([N+](=O)[O-])c1` came in with a kinetic solubility of 41.4 µg/mL (≈ 132 µM).

As for `Cc1cccc(NCc2cccc3ccccc23)n1`, the kinetic solubility came out at 9.8 µg/mL (≈ 39.5 µM).

As for `COC(=O)/C(C#N)=C/c1c[nH]c2ccccc12`, the kinetic solubility was determined as 7.1 µg/mL (≈ 31.4 µM).

Compound `Cc1ccc(OCC(=O)Nc2ccc3c(c2)C(=O)NC3=O)c(C)c1` yielded a solubility (kinetic) of 0.6 µg/mL (≈ 1.85 µM).

`CC(C)N(C(=S)Nc1cccc(C(F)(F)F)c1)C(C)c1ccccn1` (centres undefined) registered a solubility (kinetic) of 6.7 µg/mL (≈ 18.2 µM).

Compound `CCOC(=O)c1oc2ccccc2c1NC(=O)C(C)(C)C` registered a kinetic solubility of 22.6 µg/mL (≈ 78.1 µM). This solubility kinetic is about 3.4-fold higher than that of the compound before.

In turn, `Cc1cccc(N2CCN(Cc3ccc4c(c3)OCO4)CC2)c1C` yielded a kinetic solubility of 4 µg/mL (≈ 12.3 µM). Against the preceding compound, the solubility kinetic is about 5.7-fold lower.

Compound `CCOc1ccccc1C(=O)NC(C(=O)Nc1cccnc1)C(C)C` (centres undefined) showed a kinetic solubility of 33.7 µg/mL (≈ 98.7 µM).

As to `Cc1cccc(NC(=O)C(=O)NCCc2c[nH]c3ccccc23)c1C`, the solubility (kinetic) is 1.4 µg/mL (≈ 4.17 µM).

In the case of `COc1ccc2cc(Br)ccc2c1CC(=O)N1CCCC1`, the solubility (kinetic) was 3.2 µg/mL (≈ 9.19 µM).

The compound `NC(=O)c1ccc(/C=N/O)[n+](Cc2ccccc2)c1.[Br-]` displayed a solubility (kinetic) of 33.9 µg/mL.

In turn, `CC(=O)c1c(C)[nH]c(=S)c(C#N)c1-c1ccc(F)cc1` returned a kinetic solubility greater than 42.9 µg/mL.

In the case of `CCc1ccccc1NC(=O)N1C[C@H]2C[C@@H](C1)c1cccc(=O)n1C2`, the solubility (kinetic) was greater than 50.6 µg/mL.

As for `O=C1CSC(=S)N1c1cccc(Br)c1`, the solubility (kinetic) is 2.9 µg/mL (≈ 10.1 µM).

With `Cc1cnc(C(=O)OCc2ccc(Br)cc2)cn1`, the kinetic solubility is 19 µg/mL (≈ 61.9 µM).

The compound `COc1ccc(CCN2CC(C(=O)Nc3nccs3)CC2=O)cc1OC` (centres undefined) gave a solubility (kinetic) greater than 56.3 µg/mL.

Turning to `Cc1ccc(S(=O)(=O)N(C)C(C)CCc2ccco2)cc1` (centres undefined), the kinetic solubility worked out at 26.2 µg/mL (≈ 85.2 µM).

Compound `Nc1ccc(N2CCCCC2)c2nonc12` yielded a kinetic solubility greater than 32.7 µg/mL.

On to `COc1ccc(-n2cnc3ccccc3c2=O)c([N+](=O)[O-])c1`, for which the solubility (kinetic) was greater than 44.6 µg/mL.

`O=C(CSc1ncccn1)NCc1cccs1`: the solubility (kinetic) was greater than 39.8 µg/mL.

For `Cc1cc(Nc2ccc(N(C)C)cc2)n2ncnc2n1`, the solubility (kinetic) was greater than 40.2 µg/mL.

With `O=C(Cn1c(=O)oc2ccccc21)N1CCCC1`, the kinetic solubility was greater than 36.9 µg/mL.

In turn, `CN(c1ccccc1)S(=O)(=O)c1cccc(C(=O)OCC(=O)Nc2ccc(C(N)=O)cc2)c1` came in with a solubility (kinetic) of 9.9 µg/mL (≈ 21.2 µM).

Consider `Cc1ccc(S(=O)(=O)NC(Cc2ccccc2)C(=O)O)cc1` (centres undefined), for which the kinetic solubility was greater than 47.9 µg/mL.

`CC(C)CC(=O)Nc1ccc([N+](=O)[O-])cc1Cl`: the solubility (kinetic) was 9.8 µg/mL (≈ 38.2 µM).

`CCN1CCN(C(=O)c2cc3ccc(OC)cc3[nH]2)CC1`: the kinetic solubility was greater than 43.1 µg/mL.

The compound `COc1cccc(NC(=O)N2CCCC2C(=O)NCc2ccco2)c1` (centres undefined) had a kinetic solubility of 47.6 µg/mL (≈ 139 µM).

The compound `C#CCOc1ccccc1C(N)=O` had a kinetic solubility of 25.3 µg/mL (≈ 144 µM).

Consider `NC(=O)c1ccsc1NC(=O)CSc1ncnc2sccc12`, for which the kinetic solubility was 6 µg/mL (≈ 17.1 µM).

As for `Cc1cc([N+](=O)[O-])nn1CC(=O)NCCCN1CCOCC1`, the solubility (kinetic) was greater than 46.7 µg/mL.

As for `CN1CCC(O)(c2cccs2)C(C(=O)c2cccs2)C1` (centres undefined), the solubility (kinetic) was 42.1 µg/mL (≈ 137 µM).

In turn, `COc1cccc(CNC(=O)CCCc2cn(C)c3ccccc23)c1` had a solubility (kinetic) of 6.1 µg/mL (≈ 18.1 µM).

For the compound `CC(=O)N(C)Cc1ccc(C(=O)CSc2nnc(C3CC3)n2C2CC2)cc1`, the kinetic solubility is greater than 57.7 µg/mL.

`O=C(CNS(=O)(=O)c1ccc(F)cc1)Nc1ccccc1` showed a solubility (kinetic) of 44.1 µg/mL (≈ 143 µM).

In turn, `Cc1cccc(NC(=O)c2ccc(-c3ccccc3[N+](=O)[O-])o2)c1` had a solubility (kinetic) of 12.8 µg/mL (≈ 39.7 µM).

For the compound `CN(Cc1ccccc1F)C(=O)c1sccc1-c1ccccc1`, the solubility (kinetic) is 14 µg/mL (≈ 43 µM).

With `Cc1ccc(SCC(=O)N(C)C2CCS(=O)(=O)C2)c(C)c1` (centres undefined), the solubility (kinetic) was greater than 49.1 µg/mL.

For the origin of these results see PubChem BioAssay AID1996.
